The NIST ThermoML archive (doi:10.1021/je100851w)

Experiment: xn = mol fraction of the nth substance listed
Settings: Vibrating tube method

S [hydrogen sulfide] + CCC
Settings | mass density [kg/m3]
333.22 K, 2048 kPa, Gas, x1 = 0.2227 | 40
333.22 K, 2176 kPa, Gas, x1 = 0.2227 | 43.6
333.22 K, 2300 kPa, Gas, x1 = 0.2227 | 47.2
333.22 K, 2398 kPa, Gas, x1 = 0.2227 | 50.2
333.22 K, 2551 kPa, Gas, x1 = 0.2227 | 55.6
333.22 K, 2630 kPa, Gas, x1 = 0.2227 | 59.1
333.22 K, 2722 kPa, Gas, x1 = 0.2227 | 62.4
333.22 K, 2778 kPa, Gas, x1 = 0.2227 | 65.4
333.22 K, 3571 kPa, Liquid, x1 = 0.2227 | 438.6
333.22 K, 3861 kPa, Liquid, x1 = 0.2227 | 441.9
333.22 K, 4197 kPa, Liquid, x1 = 0.2227 | 445.2
333.22 K, 4915 kPa, Liquid, x1 = 0.2227 | 450.2
333.22 K, 5323 kPa, Liquid, x1 = 0.2227 | 453.4
333.22 K, 5731 kPa, Liquid, x1 = 0.2227 | 456.4
333.22 K, 6177 kPa, Liquid, x1 = 0.2227 | 459.5
333.22 K, 6686 kPa, Liquid, x1 = 0.2227 | 462.8
333.22 K, 7239 kPa, Liquid, x1 = 0.2227 | 466.1
333.22 K, 7781 kPa, Liquid, x1 = 0.2227 | 469.2
333.22 K, 8351 kPa, Liquid, x1 = 0.2227 | 472.3
333.22 K, 8992 kPa, Liquid, x1 = 0.2227 | 475.5
333.22 K, 9907 kPa, Liquid, x1 = 0.2227 | 479.8
333.22 K, 10643 kPa, Liquid, x1 = 0.2227 | 482.8
333.22 K, 11360 kPa, Liquid, x1 = 0.2227 | 485.8
333.22 K, 12135 kPa, Liquid, x1 = 0.2227 | 488.8
333.22 K, 12959 kPa, Liquid, x1 = 0.2227 | 491.9
333.22 K, 13811 kPa, Liquid, x1 = 0.2227 | 495
333.22 K, 14817 kPa, Liquid, x1 = 0.2227 | 498.4
333.22 K, 15868 kPa, Liquid, x1 = 0.2227 | 501.8
333.22 K, 16856 kPa, Liquid, x1 = 0.2227 | 504.8
333.22 K, 17893 kPa, Liquid, x1 = 0.2227 | 507.8
333.22 K, 18975 kPa, Liquid, x1 = 0.2227 | 510.8
333.22 K, 20100 kPa, Liquid, x1 = 0.2227 | 513.8
333.22 K, 21435 kPa, Liquid, x1 = 0.2227 | 517.2
333.22 K, 22830 kPa, Liquid, x1 = 0.2227 | 520.5
333.22 K, 24120 kPa, Liquid, x1 = 0.2227 | 523.5
333.22 K, 25466 kPa, Liquid, x1 = 0.2227 | 526.5
333.22 K, 26959 kPa, Liquid, x1 = 0.2227 | 529.7
333.22 K, 28465 kPa, Liquid, x1 = 0.2227 | 532.7
333.22 K, 30160 kPa, Liquid, x1 = 0.2227 | 536
333.22 K, 31961 kPa, Liquid, x1 = 0.2227 | 539.4
333.22 K, 33791 kPa, Liquid, x1 = 0.2227 | 542.6
333.22 K, 35752 kPa, Liquid, x1 = 0.2227 | 546
333.22 K, 37781 kPa, Liquid, x1 = 0.2227 | 549.3
333.22 K, 39778 kPa, Liquid, x1 = 0.2227 | 552.5
363.24 K, 9 kPa, Fluid (supercritical or subcritical phases), x1 = 0.2691 | 0.1
363.24 K, 313 kPa, Fluid (supercritical or subcritical phases), x1 = 0.2691 | 4.4
363.24 K, 596 kPa, Fluid (supercritical or subcritical phases), x1 = 0.2691 | 8.6
363.24 K, 842 kPa, Fluid (supercritical or subcritical phases), x1 = 0.2691 | 12.3
363.24 K, 1110 kPa, Fluid (supercritical or subcritical phases), x1 = 0.2691 | 16.6
363.24 K, 1358 kPa, Fluid (supercritical or subcritical phases), x1 = 0.2691 | 20.8
363.24 K, 1602 kPa, Fluid (supercritical or subcritical phases), x1 = 0.2691 | 25
363.24 K, 1810 kPa, Fluid (supercritical or subcritical phases), x1 = 0.2691 | 28.7
363.24 K, 2014 kPa, Fluid (supercritical or subcritical phases), x1 = 0.2691 | 32.7
363.24 K, 2204 kPa, Fluid (supercritical or subcritical phases), x1 = 0.2691 | 36.6
363.24 K, 2401 kPa, Fluid (supercritical or subcritical phases), x1 = 0.2691 | 40.6
363.24 K, 2576 kPa, Fluid (supercritical or subcritical phases), x1 = 0.2691 | 44.4
363.24 K, 2742 kPa, Fluid (supercritical or subcritical phases), x1 = 0.2691 | 48.3
363.24 K, 2905 kPa, Fluid (supercritical or subcritical phases), x1 = 0.2691 | 52.3
363.24 K, 3058 kPa, Fluid (supercritical or subcritical phases), x1 = 0.2691 | 56.2
363.24 K, 3211 kPa, Fluid (supercritical or subcritical phases), x1 = 0.2691 | 60.3
363.24 K, 3358 kPa, Fluid (supercritical or subcritical phases), x1 = 0.2691 | 64.4
363.24 K, 3493 kPa, Fluid (supercritical or subcritical phases), x1 = 0.2691 | 68.4
363.24 K, 3613 kPa, Fluid (supercritical or subcritical phases), x1 = 0.2691 | 72.3
363.24 K, 3752 kPa, Fluid (supercritical or subcritical phases), x1 = 0.2691 | 76.3
363.24 K, 3878 kPa, Fluid (supercritical or subcritical phases), x1 = 0.2691 | 80.7
363.24 K, 3964 kPa, Fluid (supercritical or subcritical phases), x1 = 0.2691 | 84.5
363.24 K, 4056 kPa, Fluid (supercritical or subcritical phases), x1 = 0.2691 | 88.4
363.24 K, 4156 kPa, Fluid (supercritical or subcritical phases), x1 = 0.2691 | 92.4
363.24 K, 4237 kPa, Fluid (supercritical or subcritical phases), x1 = 0.2691 | 96.3
363.24 K, 4354 kPa, Fluid (supercritical or subcritical phases), x1 = 0.2691 | 102.5
363.24 K, 4468 kPa, Fluid (supercritical or subcritical phases), x1 = 0.2691 | 108.5
363.24 K, 4619 kPa, Fluid (supercritical or subcritical phases), x1 = 0.2691 | 120.8
363.24 K, 4747 kPa, Fluid (supercritical or subcritical phases), x1 = 0.2691 | 132.2
363.24 K, 4838 kPa, Fluid (supercritical or subcritical phases), x1 = 0.2691 | 142.5
363.24 K, 4877 kPa, Fluid (supercritical or subcritical phases), x1 = 0.2691 | 152.9
363.24 K, 4905 kPa, Fluid (supercritical or subcritical phases), x1 = 0.2691 | 166.8
363.24 K, 4932 kPa, Fluid (supercritical or subcritical phases), x1 = 0.2691 | 180.1
363.24 K, 4954 kPa, Fluid (supercritical or subcritical phases), x1 = 0.2691 | 190.9
363.24 K, 4982 kPa, Fluid (supercritical or subcritical phases), x1 = 0.2691 | 203.7
363.24 K, 5002 kPa, Fluid (supercritical or subcritical phases), x1 = 0.2691 | 216
363.24 K, 5021 kPa, Fluid (supercritical or subcritical phases), x1 = 0.2691 | 229.7
363.24 K, 5043 kPa, Fluid (supercritical or subcritical phases), x1 = 0.2691 | 241.1
363.24 K, 5101 kPa, Fluid (supercritical or subcritical phases), x1 = 0.2691 | 254
363.24 K, 5146 kPa, Fluid (supercritical or subcritical phases), x1 = 0.2691 | 266.2
363.24 K, 5182 kPa, Fluid (supercritical or subcritical phases), x1 = 0.2691 | 277.5
363.24 K, 5220 kPa, Fluid (supercritical or subcritical phases), x1 = 0.2691 | 288.7
363.24 K, 5267 kPa, Fluid (supercritical or subcritical phases), x1 = 0.2691 | 299.6
363.24 K, 5324 kPa, Fluid (supercritical or subcritical phases), x1 = 0.2691 | 307.2
363.24 K, 5360 kPa, Fluid (supercritical or subcritical phases), x1 = 0.2691 | 313.4
363.24 K, 5410 kPa, Fluid (supercritical or subcritical phases), x1 = 0.2691 | 319.7
363.24 K, 5474 kPa, Fluid (supercritical or subcritical phases), x1 = 0.2691 | 326
363.24 K, 5549 kPa, Fluid (supercritical or subcritical phases), x1 = 0.2691 | 332.3
363.24 K, 5632 kPa, Fluid (supercritical or subcritical phases), x1 = 0.2691 | 339.4
363.24 K, 5762 kPa, Fluid (supercritical or subcritical phases), x1 = 0.2691 | 346.5
363.24 K, 5914 kPa, Fluid (supercritical or subcritical phases), x1 = 0.2691 | 353.3
363.24 K, 6056 kPa, Fluid (supercritical or subcritical phases), x1 = 0.2691 | 359.2
363.24 K, 6228 kPa, Fluid (supercritical or subcritical phases), x1 = 0.2691 | 365.4
363.24 K, 6441 kPa, Fluid (supercritical or subcritical phases), x1 = 0.2691 | 371.6
363.24 K, 6679 kPa, Fluid (supercritical or subcritical phases), x1 = 0.2691 | 377.7
363.24 K, 6961 kPa, Fluid (supercritical or subcritical phases), x1 = 0.2691 | 383.9
363.24 K, 7276 kPa, Fluid (supercritical or subcritical phases), x1 = 0.2691 | 390
363.24 K, 7639 kPa, Fluid (supercritical or subcritical phases), x1 = 0.2691 | 396.1
363.24 K, 8055 kPa, Fluid (supercritical or subcritical phases), x1 = 0.2691 | 402.1
363.24 K, 8511 kPa, Fluid (supercritical or subcritical phases), x1 = 0.2691 | 408
363.24 K, 9002 kPa, Fluid (supercritical or subcritical phases), x1 = 0.2691 | 413.7
363.24 K, 9557 kPa, Fluid (supercritical or subcritical phases), x1 = 0.2691 | 419.4
363.24 K, 10183 kPa, Fluid (supercritical or subcritical phases), x1 = 0.2691 | 425.2
363.24 K, 10878 kPa, Fluid (supercritical or subcritical phases), x1 = 0.2691 | 431.1
363.24 K, 11648 kPa, Fluid (supercritical or subcritical phases), x1 = 0.2691 | 436.9
363.24 K, 12515 kPa, Fluid (supercritical or subcritical phases), x1 = 0.2691 | 442.7
363.24 K, 13444 kPa, Fluid (supercritical or subcritical phases), x1 = 0.2691 | 448.5
363.24 K, 14452 kPa, Fluid (supercritical or subcritical phases), x1 = 0.2691 | 454.1
363.24 K, 15616 kPa, Fluid (supercritical or subcritical phases), x1 = 0.2691 | 460.1
363.24 K, 16807 kPa, Fluid (supercritical or subcritical phases), x1 = 0.2691 | 465.7
363.24 K, 18163 kPa, Fluid (supercritical or subcritical phases), x1 = 0.2691 | 471.5
363.24 K, 19596 kPa, Fluid (supercritical or subcritical phases), x1 = 0.2691 | 477.1
363.24 K, 20717 kPa, Fluid (supercritical or subcritical phases), x1 = 0.2691 | 481.2
363.24 K, 21739 kPa, Fluid (supercritical or subcritical phases), x1 = 0.2691 | 484.7
363.24 K, 22936 kPa, Fluid (supercritical or subcritical phases), x1 = 0.2691 | 488.7
363.24 K, 24149 kPa, Fluid (supercritical or subcritical phases), x1 = 0.2691 | 492.4
363.24 K, 25434 kPa, Fluid (supercritical or subcritical phases), x1 = 0.2691 | 496.2
363.24 K, 26773 kPa, Fluid (supercritical or subcritical phases), x1 = 0.2691 | 500
363.24 K, 28220 kPa, Fluid (supercritical or subcritical phases), x1 = 0.2691 | 503.8
363.24 K, 29831 kPa, Fluid (supercritical or subcritical phases), x1 = 0.2691 | 507.9
363.24 K, 31352 kPa, Fluid (supercritical or subcritical phases), x1 = 0.2691 | 511.5
363.24 K, 32889 kPa, Fluid (supercritical or subcritical phases), x1 = 0.2691 | 515
363.24 K, 34710 kPa, Fluid (supercritical or subcritical phases), x1 = 0.2691 | 519
